We go through one compound from patent EP4623911A1, “PI4KB INHIBITORS FOR THE TREATMENT OF FATTY LIVER DISEASE” (ETH Zurich, priority 2024, dated 2025).

This assay concerns murine NASH model. As to the kind of experiment: Murine NASH model (HFD, glucose/fructose drinking water, thermoneutral housing) treated with UCB9608. It counts as in vivo, mice. The procedure: To model NASH in murine liver, male C57BL/6N mice were challenged with HFD for 24 weeks in conjunction with 18.9 g/L glucose&23.1 g/L fructose containing drinking water under thermoneutral housing condition (29°C) for 12 weeks before the administration of UCB9608 through HFD (15 mg/kg) for another 12 weeks. Then the mice were analysed in EcoMRI for body composition measurement before 6 hours fasting, followed by dissection to harvest liver and sample blood.
Total RNA was extracted from adipose depots, liver or in vitro cell cultures via Trizol reagent (Invitrogen) according to the manufacturer's instructions. Genomic DNA was removed from the crude RNA samples by DNase treatment (NEB BioLabs). For individual sample, 1 µg of total RNA was used to convert into cDNA library by using the High-Capacity cDNA Reverse transcription kit (Applied Biosystems, 4368813). Quantitative PCR was performed using KAPA SYBR FAST Universal kit (Roche, KK4618) on ViiA7 (Applied Biosystems) and the relative transcript levels were normalized to […] expression via ΔΔCt method. Table 2: Sequences of qPCR primers used in this study.
Plasma collected from mice under different conditions was used to determine levels of lipolysis and liver injury. FFA levels were measured via NEFA assay kit (Wako NEFA kit). TG levels were determined via TG assay kit (Roche Trig/GB reagent). ALT (MAK052, Sigma) and AST (MAK055, Sigma) assay kits were used to determine ALT and AST activity according to the manufacturer's instructions. The absorbance was monitored using Synergy Gen5 Platereader.
Weight of liver pieces (50-100 mg) was recorded before homogenization by 1 mL isopropanol per 50 mg tissue. The homogenates were incubated at room temperature with rotating before spinning down to remove debris at 2000×g for 10 min and collect supernatant. The TG levels were determined (Roche Trig/GB reagent) in Synergy Gen5 Platereader and normalized to the weight of liver pieces.
For NASH cohort, livers were dissected and fixed with 4% PFA in PBS for 24 h at 4°C. The samples were sent to the University of Zurich for histologic analyses. Briefly, liver tissues were dehydrated and embedded in paraffin and underwent section at 3 µm. The slides were stained with hematoxylin and eosin (H&E) and Gomori Green Trichrome directly or stained with anti-cleaved Caspase 3 after antigen retrieval. Afterwards, the images were captured by digital slide scanners and the grade of steatosis, ballooning, inflammation and fibrosis were quantified via the NASH Clinical Research Network Scoring System (Kleiner,D.E. et al. Hepatology 41, (2005)). To perform ORO staining, the fixed samples were sectioned, and the slides were stained via Oil Red O solution, followed by counter-staining with eosin. The images were acquired by digital slide scanners.

Setting [1] is: NASH mice, 12 weeks after administration of UCB9608.
Setting [2] is: liver histology, NASH mice, UCB9608 vs vehicle.

“Also recorded” adds a separate entry of the source.

As for `COc1ccc(NC(=O)N2CCN(c3nc(N)nc4c3cnn4C)[C@@H](C)C2)c(C)c1` [UCB9608], the “transcript levels of inflammatory markers” value (NASH livers, qPCR) is given as “mitigation”. Moreover, the fibrosis-related marker expression entry (NASH livers, qPCR, vs vehicle-treated control NASH mice) was “substantially ameliorated”. Besides, under setting [1], the “TG levels in the plasma” value is given as “reduction; also recorded: reduced” and the “lipolysis (plasma FFA levels)” value was “enhanced”. For the setting “NASH mice, UCB9608 12 weeks”, the “ALT activity in the plasma” value was “reduction”, the “AST activity in the plasma” value is given as “reduction”, the “hepatic TG levels” value was “reduced” and the “liver mass/body weight ratio” value is “reduced”. Further, the body weight entry (NASH mice, UCB9608 through HFD (15 mg/kg) for 12 weeks) was “significant loss”. Also, the fat mass entry (NASH mice, UCB9608 through HFD (15 mg/kg) for 12 weeks, EcoMRI) was “significant loss”. Under setting [2], the NAFLD activity score result is given as “significantly lower”, the fibrosis grade result is given as “significantly lower”, the inflammation levels entry was “significantly lower” and the liver injury result is reported as “significantly lower”. Moreover, the steatosis grade entry under setting [2] is listed as “significantly lower”. Also, the fatty acid oxidation result (liver of NASH mice, UCB9608 12 weeks) is reported as “significant elevation”.
